Assay results as given in paper PMC12947280, “An Antifungal with a Novel Mechanism of Action Discovered via Resistance Gene-Guided Genome Mining” (ACS Central Science, 2026).

How the values were obtained:
S. cerevisiae ALS = target: T1, S. cerevisiae ALS (Saccharomyces cerevisiae, UniProt P07342); experiment: Kinetic characterization: IC50 vs concentration of active ALS; assay type: biochemical; details: IC50 equal to half the concentration of active ALS
T1 construct: made in house; host or cells: E. coli BL21 (DE3), pET28a-ScILV2
T1 sequence (P07342 58-687): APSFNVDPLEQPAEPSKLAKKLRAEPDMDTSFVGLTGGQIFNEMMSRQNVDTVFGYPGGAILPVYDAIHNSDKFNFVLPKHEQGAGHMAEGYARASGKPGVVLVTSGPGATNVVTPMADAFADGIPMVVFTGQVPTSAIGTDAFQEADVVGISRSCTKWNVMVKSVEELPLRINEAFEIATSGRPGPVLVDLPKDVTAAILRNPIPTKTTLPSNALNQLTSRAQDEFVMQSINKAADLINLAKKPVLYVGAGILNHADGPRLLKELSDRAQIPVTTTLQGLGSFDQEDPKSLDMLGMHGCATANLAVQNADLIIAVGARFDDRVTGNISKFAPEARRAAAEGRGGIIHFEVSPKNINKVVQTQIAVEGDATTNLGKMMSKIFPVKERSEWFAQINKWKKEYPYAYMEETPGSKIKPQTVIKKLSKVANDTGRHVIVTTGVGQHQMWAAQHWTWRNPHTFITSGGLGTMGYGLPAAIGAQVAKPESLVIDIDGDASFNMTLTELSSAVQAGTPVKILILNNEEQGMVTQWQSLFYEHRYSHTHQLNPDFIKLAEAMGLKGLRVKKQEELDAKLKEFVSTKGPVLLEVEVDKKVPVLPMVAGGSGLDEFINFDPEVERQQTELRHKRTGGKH

A. fumigatus = experiment: Inhibition of A. fumigatus growth; assay type: cell-based; details: Aspergillus fumigatus
[1] = Liver microsome stability, human; assay type: in vitro ADME; details: human liver microsomes; read-out: Liver microsome t1/2 Human
C. albicans ALS = C. albicans ALS (Candida albicans, UniProt A0A1D8PJF9); experiment: ALS biochemical assay (CaALS)
Sequence of C. albicans ALS (A0A1D8PJF9 entry or part of it): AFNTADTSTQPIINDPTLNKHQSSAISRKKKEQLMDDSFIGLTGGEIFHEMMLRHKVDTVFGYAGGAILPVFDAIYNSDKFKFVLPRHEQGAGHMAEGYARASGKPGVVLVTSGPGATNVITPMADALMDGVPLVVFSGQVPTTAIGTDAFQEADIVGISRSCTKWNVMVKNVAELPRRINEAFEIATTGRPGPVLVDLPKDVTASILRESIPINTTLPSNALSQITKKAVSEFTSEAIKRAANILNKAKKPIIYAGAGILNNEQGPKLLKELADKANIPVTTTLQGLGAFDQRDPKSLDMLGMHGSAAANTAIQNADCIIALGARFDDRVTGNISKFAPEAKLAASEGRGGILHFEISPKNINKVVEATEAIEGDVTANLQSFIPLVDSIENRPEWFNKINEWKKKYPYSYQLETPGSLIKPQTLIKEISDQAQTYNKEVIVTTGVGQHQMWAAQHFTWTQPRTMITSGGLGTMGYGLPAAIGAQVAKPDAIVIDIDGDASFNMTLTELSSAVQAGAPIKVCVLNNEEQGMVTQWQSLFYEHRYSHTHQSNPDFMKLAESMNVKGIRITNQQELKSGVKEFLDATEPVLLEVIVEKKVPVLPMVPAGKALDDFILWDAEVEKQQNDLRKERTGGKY

Plasma stability, human = assay type: in vitro ADME; details: read-out: Plasma t1/2 Human
ScALS = target: T2, ScALS (Saccharomyces cerevisiae, UniProt P07342); experiment: Intact protein mass spectrometry; assay type: binding; details: 10 μM, 30 min
T2 construct: made in house; host or cells: E. coli BL21 (DE3), pET28a-ScILV2
T2 sequence (P07342 58-687): as the sequence (P07342 58-687) above
Description: We next characterized the structural basis for binding of 1 to ALS. Given the strained structure and the observed tight binding kinetics, we hypothesized that 1 may be binding covalently. Analysis of ALS from both AfALS and ScALS by intact protein mass spectrometry yielded traces with multiple proteoforms for both proteins. […] Limited proteolysis followed by peptide mapping localized the covalent attachment to the 239[…]258 peptide of ScALS with Lys251 and Asp252 (equivalent to Lys310 and Asp311 in AfALS) serving as the most likely attachment sites (Figure S7).
Biomek FX, Beckman Coulter Fullerton CA) were used to conduct serial dilutions and liquid […]
Solutions of 1 were added in an 11 point 2x serial dilution in DMSO with a maximum tested concentration of 32 μg/ml in the culture medium. Drug solution was added at 1% v/v into 200 μl […]
After digestion, the peptide mixture was immediately analysed by LC-MS/MS using a Waters I-class UPLC equipped with an ACQUITY UPLC BEH C18 column (2.1x50 mm, 1.7 µm, Waters) at 50 °C coupled to a Waters Synapt G2Si MS. […]

In the case of `CCCC1C(C)=CC2CC=CC3(C)C2C1C(=O)C31C(=O)NC(CCCO)C1=O` (stereo not shown) [compound 1], the “binding kinetics (IC50 vs concentration of active ALS)” value (S. cerevisiae ALS) is reported as “tight-binding kinetics”, the EC50 (A. fumigatus; read-out: A. fumigatus growth inhibition EC50 (Figure 4A)) is reported as 700 ± 500 nM and the IC50 (A. fumigatus; read-out: A. fumigatus growth inhibition IC50) is reported as 700 nM. For the same compound, the half-life [1] was 3 min, the IC50 (C. albicans ALS) was 60 ± 10 nM and the half-life (Plasma stability, human) was 79 min. For the same compound, the “covalent modification of ScALS (intact mass shift)” value (ScALS) was “mass shifts consistent with covalent addition”.
